Experimental data published in US20020058701A1 (priority 2000, published 2002).

Legend:
[1] = test system: C57BL/ks diabetic (db/db) mice; experiment: Glucose-lowering (plasma glucose) in diabetic db/db mice; assay type: in vivo; details: for Change in Glucose (mg/dL) 6 H: 6 h after initial dose; for Change in Glucose (mg/dL) 30 H: 30 h after initial dose; for Change in Glucose (mg/dL) 54 H: 54 h after initial dose
Protocol: (§1) Genetically altered obese diabetic mice (designated C57BL/ks diabetic or db/db) were purchased from the Jackson Laboratory (Bar Harbor, Me., USA), and served as experimental animals. Male animals between the ages of 8-9 weeks were employed in the studies described here. Animals were housed (4 mice/cage) under standard laboratory conditions at 22° C. and 50% relative humidity, and were maintained on a diet of Purina rodent chow and water ad libitum. Prior to treatment, blood was collected from the tail vein of each animal. Mice that had plasma glucose levels between 350 and 600 mg/dL were used. Each treatment group consisted of eight mice that were distributed so that the mean glucose levels were equivalent in each group at the start of the study. Db/db mice received, orally by gavage: the experimental compound administered at 62.5, 125, or 250 mg/kg/day (unless otherwise noted), or metformin administered at […] for 1-3 days. Test compounds were delivered in a liquid vehicle containing 0.25% (w/v) carboxymethyl-cellulose, 1% (v/v) Tween […] (polyoxyethylene sorbitan monosterate), and up to 10% (v/v) dimethyl sulfoxide (DMSO) in a volume of 10 ml/kg. Blood was sampled from the tail vein at three hours, six, eight, twenty-four, and thirty hours post-administration (the first administration) of the particular compound in non-fasted conditions. Experiments 3-5 also sampled blood at fifty-four hours post-administration (the first administration) of the particular compound in non-fasted conditions. Blood samples were analyzed for plasma glucose levels. Individual body weights and mean food consumption (each cage) were also measured daily.
The isolated test substances were prepared as described previously (vide supra). Metformin (1,1-dimethylbiguanide), carboxymethyl cellulose and Tween 60 were purchased from Sigma Chemical Co. (St. Louis, Mo., USA; catalog #'s D-5035, C-4888, and p-1629, respectively). Plasma glucose levels were determined colorimetrically using glucose oxidase (Sigma Chemical Co.; Sigma catalog #315). Significant differences between groups (comparing compound-treated to vehicle-treated) were evaluated using analysis of variance and Fisher's post-hoc test.
Vehicle, metformin (250 mg/kg) or enriched extract (1000 mg/kg) were given to db/db mice at 0(initial), 8, 24, 32, 48, 56, 72, 80, and 96 hours post initial dose.
Plasma glucose levels were measured at baseline, 3 (day 1), 51 hours (Day 3), and 99 hours (Day 5).

[2] = Body weights and food consumption in diabetic db/db mice; assay type: in vivo
Protocol: as §1

With `COc1cc(O)cc(CCc2ccccc2)c1` [Compound G] the “Change in Glucose (mg/dL) 6 H” value ([1]; 125 mg/kg q.d. oral at 0, 24, 48 h, vehicle 15.5, Table 8) was 35.0 mg/dL, the “Change in Glucose (mg/dL) 30 H” value ([1]; 125 mg/kg q.d. oral at 0, 24, 48 h, vehicle 56.6, Table 8) was -12.2 mg/dL and the “Change in Glucose (mg/dL) 54 H” value ([1]; 125 mg/kg q.d. oral at 0, 24, 48 h, vehicle 88.6, Table 8) was 12.0 mg/dL. For the same compound, the “mean glucose levels rose from the baseline values” ([1]; Table 8, 125 mg/kg, fifty-four hours after initial dosing, value = size of rise) was 12.0 mg/dL, the “mean glucose levels declined from the baseline value” ([1]; Table 8, printed dose 250 mg/kg, thirty hours after initial dosing, value = size of decline) was 74.6 mg/dL and the “reduction in plasma glucose relative to vehicle (control) (in words)” value ([1]; oral, dose level of 125 mg/kg, Tables 8 and 10) was “statistically significant reduction”. The “Food Intake (g/mouse) 0-48 h” value ([2]; 125 mg/kg, vehicle 6.0, Table 9) was 5.9 g/mouse, the “Body weight (g/mouse) (mean) 0 h” value ([2]; 125 mg/kg, vehicle 39.8 ± 0.7, Table 9) was 39.0 ± 1.1 g/mouse and the “Body weight (g/mouse) (mean) 48 hr” value ([2]; 125 mg/kg, vehicle 39.7 ± 0.6, Table 9) was 39.0 ± 1.1 g/mouse. For the same compound, the “adverse effect on food intake or body weight (in words)” value ([2]; 125 mg/kg, Tables 9 and 11) was “absence of any significantly adverse effect”.

For `CN(C)C(=N)NC(=N)N` [Metformin, 1,1-dimethylbiguanide, reference compound], the “Change in Glucose (mg/dL) 6 H” value ([1]; 250 mg/kg q.d. oral at 0, 24, 48 h, vehicle 35.9, Tables 4 and 6) was -180.4 mg/dL, the “Change in Glucose (mg/dL) 30 H” value ([1]; 250 mg/kg q.d. oral at 0, 24, 48 h, vehicle 79.6, Tables 4 and 6) was -112.4 mg/dL and the “Change in Glucose (mg/dL) 54 H” value ([1]; 250 mg/kg q.d. oral at 0, 24, 48 h, vehicle 60.3, Tables 4 and 6) was -41.3 mg/dL. For the same compound, the glucose levels rose ([1]; Table 8, metformin 250 mg/kg, fifty-four hours after the initial dose, value = size of rise) was 6.8 mg/dL, the “lowered plasma glucose levels by” value ([1]; Table 8, metformin 250 mg/kg, six hours after the initial dose, value = size of decline) was “approximately 113.6 mg/dL” and the “lowered plasma glucose levels by” value ([1]; Table 8, metformin 250 mg/kg, thirty hours after the initial dose, value = size of decline) was ~25.1 mg/dL. The “mean glucose levels declined from the baseline values” ([1]; Tables 4 and 6, 250 mg/kg, fifty-four hours after initial dosing, value = size of decline) was 41.3 mg/dL, the “mean glucose levels declined (lowered) from the baseline value” ([1]; Tables 4 and 6, 250 mg/kg, six hours after initial dosing, value = size of decline) was “approximately 180.4 mg/dL” and the “mean glucose levels declined (lowered) from the baseline values” ([1]; Tables 4 and 6, 250 mg/kg, thirty hours after initial dosing, value = size of decline) was ~112.4 mg/dL. For the same compound, the “Change in Glucose (mg/dL) 6 H” value ([1]; metformin 250 mg/kg q.d. oral, vehicle 15.5, Table 8) was -113.6 mg/dL, the “Change in Glucose (mg/dL) 30 H” value ([1]; metformin 250 mg/kg q.d. oral, vehicle 56.6, Table 8) was -25.1 mg/dL and the “Change in Glucose (mg/dL) 54 H” value ([1]; metformin 250 mg/kg q.d. oral, vehicle 88.6, Table 8) was 6.8 mg/dL. The “Day 1 glucose” value ([1]; metformin 250 mg/kg, same schedule as extracts, 3 h post initial dose, vehicle −80.9) was -180.5 mg/dL, the “Day 3 glucose” value ([1]; metformin 250 mg/kg, same schedule as extracts, 51 h post initial dose, vehicle −77.1) was -207.5 mg/dL and the “Day 5 glucose” value ([1]; metformin 250 mg/kg, same schedule as extracts, 99 h post initial dose, vehicle +102.1) was -86.4 mg/dL. For the same compound, the “Food Intake (g/mouse) 0-48 h” value ([2]; 250 mg/kg, vehicle 6.0, Table 9) was 5.4 g/mouse, the “Food Intake (g/mouse) 0-48 h” value ([2]; 250 mg/kg, vehicle 6.3, Tables 5 and 7) was 5.1 g/mouse and the “Body weight (g/mouse) (mean) 0 h” value ([2]; 250 mg/kg, vehicle 39.2 ± 0.5, Tables 5 and 7) was 37.3 ± 0.7 g/mouse. For the same compound, the “Body weight (g/mouse) (mean) 0 h” value ([2]; 250 mg/kg, vehicle 39.8 ± 0.7, Table 9) was 40.6 ± 0.4 g/mouse, the “Body weight (g/mouse) (mean) 48 hr” value ([2]; 250 mg/kg, vehicle 39.5 ± 0.5, Tables 5 and 7) was 37.2 ± 0.6 g/mouse and the “Body weight (g/mouse) (mean) 48 hr” value ([2]; 250 mg/kg, vehicle 39.7 ± 0.6, Table 9) was 40.5 ± 0.4 g/mouse.
